In US7851436B2, “Inhibition of migration and induction of cell death by the type II collagen amino propeptides” (Washington University, priority 2007, dated 2010):
“Also recorded” adds a separate entry of the source.

Experiments:
[1] = target: T1, αVβ3 integrin (Homo sapiens, UniProt P05106+P06756); experiment: Cell surface labeling and GST pull-down with immunoblotting; type: binding; settings: biotin-labeled Ch-1 membrane proteins, Western blot
T1 construct: Ch-1 membrane proteins were labeled with biotin, and PIIBNP was used to isolate the integrin molecules; endogenous in cells; host or cells: Ch-1 human chondrosarcoma cells (surface-biotinylated, lysed)
T1 sequence (P06756 31-889 limits assumed): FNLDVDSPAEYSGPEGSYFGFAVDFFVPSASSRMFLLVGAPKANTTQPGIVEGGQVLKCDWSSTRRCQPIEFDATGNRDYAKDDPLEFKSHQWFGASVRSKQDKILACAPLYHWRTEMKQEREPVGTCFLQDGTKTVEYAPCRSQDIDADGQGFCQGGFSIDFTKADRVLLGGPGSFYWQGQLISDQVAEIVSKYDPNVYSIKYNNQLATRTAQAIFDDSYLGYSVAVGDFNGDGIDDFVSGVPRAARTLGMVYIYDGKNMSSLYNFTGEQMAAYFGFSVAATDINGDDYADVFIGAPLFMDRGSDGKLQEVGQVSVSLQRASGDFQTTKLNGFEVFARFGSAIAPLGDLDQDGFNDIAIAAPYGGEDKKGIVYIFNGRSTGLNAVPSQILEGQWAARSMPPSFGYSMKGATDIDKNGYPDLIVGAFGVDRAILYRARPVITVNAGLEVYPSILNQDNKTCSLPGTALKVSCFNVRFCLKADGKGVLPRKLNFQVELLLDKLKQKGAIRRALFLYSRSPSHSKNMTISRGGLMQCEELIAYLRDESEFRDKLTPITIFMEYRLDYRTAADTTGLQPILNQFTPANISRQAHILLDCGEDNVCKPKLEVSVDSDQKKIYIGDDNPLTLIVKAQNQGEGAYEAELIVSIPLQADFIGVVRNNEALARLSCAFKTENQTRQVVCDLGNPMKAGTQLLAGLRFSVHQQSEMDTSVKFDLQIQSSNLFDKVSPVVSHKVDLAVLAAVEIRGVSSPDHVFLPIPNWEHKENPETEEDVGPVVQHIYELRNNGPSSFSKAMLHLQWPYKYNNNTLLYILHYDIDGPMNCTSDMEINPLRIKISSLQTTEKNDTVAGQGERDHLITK
T1 sequence (P06756 891-1048 limits assumed): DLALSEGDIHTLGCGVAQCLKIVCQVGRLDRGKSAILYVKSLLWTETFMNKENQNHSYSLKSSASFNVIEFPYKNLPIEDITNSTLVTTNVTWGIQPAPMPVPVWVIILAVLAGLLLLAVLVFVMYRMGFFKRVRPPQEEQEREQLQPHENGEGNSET
T1 sequence (P05106 27-788): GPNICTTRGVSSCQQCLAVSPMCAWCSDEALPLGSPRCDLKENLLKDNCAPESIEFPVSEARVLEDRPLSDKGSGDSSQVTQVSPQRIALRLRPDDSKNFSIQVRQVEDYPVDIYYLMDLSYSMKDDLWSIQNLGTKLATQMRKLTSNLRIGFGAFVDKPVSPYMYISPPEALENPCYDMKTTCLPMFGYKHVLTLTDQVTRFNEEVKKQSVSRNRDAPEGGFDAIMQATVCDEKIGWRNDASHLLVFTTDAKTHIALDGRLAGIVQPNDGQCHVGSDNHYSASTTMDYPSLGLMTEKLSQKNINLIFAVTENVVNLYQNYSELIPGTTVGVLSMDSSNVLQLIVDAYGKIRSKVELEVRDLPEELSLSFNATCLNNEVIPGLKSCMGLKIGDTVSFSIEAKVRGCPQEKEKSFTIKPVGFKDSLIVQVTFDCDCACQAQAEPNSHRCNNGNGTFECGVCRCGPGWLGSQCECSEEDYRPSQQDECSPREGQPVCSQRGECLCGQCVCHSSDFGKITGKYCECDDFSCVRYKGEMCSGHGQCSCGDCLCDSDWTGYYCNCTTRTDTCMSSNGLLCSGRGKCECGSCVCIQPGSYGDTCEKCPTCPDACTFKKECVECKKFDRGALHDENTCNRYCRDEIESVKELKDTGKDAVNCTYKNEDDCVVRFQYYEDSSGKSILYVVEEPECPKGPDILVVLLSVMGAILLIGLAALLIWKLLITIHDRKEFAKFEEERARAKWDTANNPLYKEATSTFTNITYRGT
Experimental: (§1) Immunoblotting. Western blotting was performed as described (7). Blots were probed with the following primary antibodies: rabbit anti αV, α2, α3, α5, β1, β3, β5 integrin and goat anti actin (Saint Cruz), chicken anti PIIBNP antiserum, and mouse anti exon 2 antiserum.
(§2) Cell Surface labeling and GST Pull-down Assay. Ch-1 cells were incubated with EZ-link Sulfo-NHS-Biotin reagent for 30 mins. according to the product instruction (Sigma). After 3 washes with 0.1 M glycine in PBS, the cells were lysed with a lysis buffer described above. The lysate was incubated with glutathione derivatized agarose beads previously bound with GST, PIIANP, PIIBNP or mPIIBNP for 1 hr. at RT. […] The membrane was washed and incubated with antibodies and then incubated with a secondary antibody coupled to horseradish peroxidase. The antibody complex was visualized by enhanced chemiluminescence.

[2] = target: T2, αVβ5 integrin (Homo sapiens, UniProt P06756+P18084); experiment: as above; type: binding; settings: biotin-labeled Ch-1 membrane proteins, Western blot
T2 construct: Ch-1 membrane proteins were labeled with biotin, and PIIBNP was used to isolate the integrin molecules; endogenous in cells; host or cells: Ch-1 human chondrosarcoma cells (surface-biotinylated, lysed)
T2 sequence (P06756 31-889 limits assumed): as the sequence (P06756 31-889 limits assumed) above
T2 sequence (P06756 891-1048 limits assumed): as the sequence (P06756 891-1048 limits assumed) above
T2 sequence (P18084 24-799): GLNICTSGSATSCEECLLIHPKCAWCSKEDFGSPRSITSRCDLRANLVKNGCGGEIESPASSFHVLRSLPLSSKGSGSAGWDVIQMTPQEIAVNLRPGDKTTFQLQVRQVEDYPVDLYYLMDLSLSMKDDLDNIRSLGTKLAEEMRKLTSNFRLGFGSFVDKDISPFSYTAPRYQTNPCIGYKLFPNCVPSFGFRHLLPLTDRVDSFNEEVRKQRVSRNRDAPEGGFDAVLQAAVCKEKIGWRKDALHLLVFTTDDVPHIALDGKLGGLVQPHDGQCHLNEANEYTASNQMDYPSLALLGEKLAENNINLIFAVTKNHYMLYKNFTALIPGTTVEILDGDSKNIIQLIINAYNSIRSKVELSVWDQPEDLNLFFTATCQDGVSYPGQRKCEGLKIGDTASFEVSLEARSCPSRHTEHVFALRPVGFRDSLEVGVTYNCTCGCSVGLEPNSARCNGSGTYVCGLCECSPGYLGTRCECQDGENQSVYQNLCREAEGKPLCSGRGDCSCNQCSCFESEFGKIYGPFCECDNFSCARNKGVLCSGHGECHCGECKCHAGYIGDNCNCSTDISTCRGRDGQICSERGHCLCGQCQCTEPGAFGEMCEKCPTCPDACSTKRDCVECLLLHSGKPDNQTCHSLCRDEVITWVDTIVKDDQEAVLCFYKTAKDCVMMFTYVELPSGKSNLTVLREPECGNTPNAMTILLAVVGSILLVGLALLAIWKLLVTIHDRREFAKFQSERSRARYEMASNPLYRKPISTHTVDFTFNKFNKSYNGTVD
Experimental: as §1, §2

[3] = test system: normal human articular chondrocytes; experiment: Cell survival assay in normal human articular chondrocytes; type: cell-based; settings: high-density monolayers
Experimental: Cell Culture. Human Chondrosarcoma cell line (Ch-1) was isolated from a portion of chondrosarcoma tumor. The Ch-1 cell line was maintained in RPMI-1640 supplemented with 10% FBS and at 37° C. in a humidified, 5% CO2 atmosphere. Human chondrocytes were obtained from Dr. Davis Adkisson (ISTO Technologies, St. Louis) or isolated from macroscopically intact tissue obtained from total joint arthroplasty as described (Bassleer et al., 1998). HeLa 229 cells and MDA-MB 231 cell lines were provided by Dr. Kathy Weilbaecher (Washington University) and were cultured in RPMI medium supplemented with 10% FBS. HUVEC cells were a gift from Dr. William Frazier (Washington University) and were cultured in M199 Earle's medium with 10 units/ml of penicillin, 5 μg/ml streptomycin and 0.25 μg/ml Fungizone supplemented with 10% FBS, 0.1 mg/ml L-glutamine, 25 mM Hepes, 16 units/ml of heparin (Sigma) and 0.1 mg/ml endothelial cell mitogen (Biochemical Technologies).
Detection of Cell Death. […] Cells were monitored by light microscopy and images were digitally photographed using a Q capture Retiga 2000R camera. Quantification of cells remaining in the well was performed by washing with PBS for three times, fixing with 4% paraformaldehyde. The cells per field (×400) were counted for three field per well (3 wells per measurement). The mean number and standard deviation (SD) were calculated.

[4] = test system: osteoclasts differentiated from Raw 264.7 cells, integrin αv siRNA treated; experiment: Osteoclast death after integrin αv siRNA; type: cell-based, mouse; settings: 16 hours
Experimental: FIG. 11 depicts a graph showing PIIBNP-induced osteoclast death. siRNA specifically targeted to integrin αv was purchased from San Cruz (San Cruz, Calif.). Raw 264.7 cells were differentiated into osteoclasts by treatment with 100 nM of s-RANKL. The integrin αv expression in the […] were suppressed by treatment of the cells with siRNA. Integrin αv suppressed osteoblasts were incubated with recombinant GST, PIIBNP or mPIIBNP for 16 hours. Cell viability was assayed by a trypan blue exclusion test as described in FIG. 3.

[5] = target: T3, αV integrin (Homo sapiens, UniProt P06756); experiment: Integrin αV immunoprecipitation; type: binding; settings: Ch-1 cell lysates
T3 construct: Cell homogenates were then mixed with GST, PIIBNP, or mPIIBNP; endogenous in cells; host or cells: Ch-1 human chondrosarcoma cell lysate
T3 sequence (P06756 31-889 limits assumed): as the sequence (P06756 31-889 limits assumed) above
T3 sequence (P06756 891-1048 limits assumed): as the sequence (P06756 891-1048 limits assumed) above
Experimental: Integrin αV Immunoprecipitation. Ch-1 cells were lysed in lysis buffer (50 mM Hepes-KOH [pH 7.4]; 150 mM NaCl; 1% Triton X-100; 10% glycerol; 1 mM EGTA; 1 mM EDTA; 10 mM sodium pyrophosphate; 100 mM sodium fluoride; 0.2 mM sodium orthovanadate; supplemented with the proteinase inhibitors cocktail (Sigma) overnight at 4° C. Cell homogenates were then mixed with GST, PIIBNP, or mPIIBNP and incubated for 1 hours at room temperature. Protein A agarose (Sigma) previously bound with integrin αV antibody was incubated with cell homogenate mixture for 4 h at 4° C. with gentle shaking. After washing (5 mins.×3), the precipitated material was analyzed by SDS-PAGE and detected with chicken anti PIIBNP antibody.

[6] = test system: Ch-1 cells; experiment: Internalization of propeptides (immunostaining); type: cell-based, human
Text: Ch-1 cells exposed to GST-PIIBNP and GST-PIIANP were immunostained with immunospecific antibodies. […] The internalization of PIIBNP may be exploited to target exogenous agents to cells expressing αVβ3 and αVβ5 integrins.

[7] = test system: Ch-1 cells; experiment: Cell adhesion assay (Ch-1 cells on wells coated with recombinant proteins); type: cell-based, human; settings: wells coated with recombinant protein
Experimental: Cell Adhesion Assay. Cell adhesion assays were performed using a spectrometric method. A 96-well plate was coated at 4° C. overnight with recombinant proteins. Wells were washed three times with RPMI-1640 medium containing 10% FBS. Ch-1 cells were harvested with limited trypsin digestion and plated at 5×10^4 cells per well in RPMI-1640 medium supplemented with 10% FBS for an hours. Proteins were added and incubation continued for 1 hour. The wells were washed three times with pre-warmed PBS to remove non-adherent cells. The adherent cells were fixed with 4% paraformaldehyde in PBS for 10 minutes at room temperature and stained with 0.5% toluidine blue for 5 minutes. The wells were rinsed with water and cells were solubilized with 0.1% SDS. Absorbance at 595 nm was recorded on a SpectraMax plate reader. Synthetic blocking peptides and antibodies to αVβ3 and αVβ5 integrin were pre-incubated with cells for 15 to 30 mins before they were added onto the wells in the inhibition assays.
Cell Culture. Human Chondrosarcoma cell line (Ch-1) was isolated from a portion of chondrosarcoma tumor (Chansky et al., J Orthop Res. (1998) 16(5):521-30). The Ch-1 cell line was maintained in RPMI-1640 supplemented with 10% FBS and at 37° C. in a humidified, 5% CO2 atmosphere.

**Q.** Which “binding to integrin αVβ3” value [1] does the source give for “PIIBNP: Recombinant human Type IIB procollagen NH2-propeptide (exons 3-8, lacking exon 2), expressed as GST fusion protein” here?
**A.** Its value is “only integrins identified; also recorded: binds”.

**Q.** And the “binding to integrin αVβ5” value [2]?
**A.** Its value is “only integrins identified; also recorded: binds”.

**Q.** What about the “induction of cell death in normal chondrocytes” value [3] of the same substance?
**A.** The value was “did not induce cell death”.

**Q.** What about the “PIIBNP-induced osteoclast death after integrin αv siRNA compared with control siRNA” value [4] of the same substance?
**A.** The value was “significantly reduced”.

**Q.** What about the “immunoprecipitation with αV integrin specific antibody” value [5] of the same substance?
**A.** Its value is “immunoprecipitated”.

**Q.** What about the internalization into cells [6] of the same substance?
**A.** The internalization into cells was “is internalized”.

**Q.** What about the “colocalization with actin filaments” value ([6]; 30 minutes of exposure) of the same substance?
**A.** Its value is “colocalized with actin filaments”.

**Q.** And the “localization to the nucleus” value ([6]; 2 hours of exposure)?
**A.** The value was “localized to the nucleus; also recorded: colocalized with the nucleus”.

**Q.** And the “adhesion to Ch-1 cells” value [7]?
**A.** Its value is “shown to adhere”.

**Q.** What about the “adhesion to Ch-1 cells” value ([7]; listed as GST-PIIBNP) of the same substance?
**A.** The value was “strong binding”.
